The values below come from article PMC2994263 (Chemical biology & drug design, 2010).

Test [1] has as its system AT1 receptor. Nature of the test: Phosphoinositide. Type of test: cell-based, human.
In test [2] the test system is AT1 receptor. Kind of test: Calcium mobilization in AT1-transfected HEK-293 cells. The test is classed as cell-based, human. Conditions: 10 nM AngII, Fura-2/AM fluorescence.
Test [3] has as its system Akt/PKB (Ser473) phosphorylation by AngII via endogenous AT1 receptor. Nature of the test: Akt/PKB phosphorylation. Type of test: cell-based, human. Conditions: 10 nM AngII, 5 min.
Test [4] relates to NFκB p65 (Ser536) phosphorylation by AngII. Kind of test: NFκB p65 phosphorylation. Type of test: cell-based, human. As to conditions: 10 nM AngII, 5 min.
For test [5], the system named is AT1 receptor. As to conditions: AT1 cDNA transfected HEK-293 cells; ref [10]; cited from earlier work.
For test [6], the system named is mutant AT1 receptor containing the IC2 of the BKB2R. Conditions: HEK-293 cells, ref [10]; cited from earlier work.
The subject of test [7] is ERK1/2 activation by AngII. Nature of the test: ERK1/2 phosphorylation. Type of test: cell-based, human. Conditions: 10 μM peptide; 10 nM AngII, 5 min; western blot; average of three gels.
Test [8] has as its system bradykinin B2 receptor. Conditions: bradykinin B2 receptor cDNA transfected cells; ref [10]; cited from earlier work.

For “Angiotensin II (DRVYIHPF; Angiotensin-2; UniProt P01019 25-32, looked up) [AngII]”, the “PI turnover induced by AngII (in words)” value in test [1] (10 nM AngII, 30 min at 37°C, no peptide) was “induced a marked PI turnover”. Further, the “calcium influx caused by AngII (in words)” value in test [2] (no peptide) is “strong calcium influx”. Besides, the “activation of Akt/PKB by AngII (in words)” value in test [3] (no peptide) is listed as “sizable activation of Akt/PKB”. In addition, in test [4] (no peptide), the “Ser536 phosphorylation of p65 by AngII (in words)” value is “clearly enhanced”. The “Akt phosphorylation (in words)” value in test [5] is given as “increases Akt phosphorylation”. Also, in test [6], the “pAkt (in words)” value is “decreased pAkt”.
Consider “GRKKRRQRRRPPQGGVHPMKSRLRRT [AT1 IC2 peptide]”, for which, in test [7], the “effect on ERK1/2 activation by AngII (in words)” value was “no effect”.
Regarding “GRKKRRQRRRPPQGGVKTMSMGRMRG [control peptide]”, the “effect on AngII induced PI turnover (in words)” value in test [1] (10 μM peptide, 30 min before 10 nM AngII) is reported as “unhindered”. Besides, the “effect on AngII promoted Ca2+ entry (in words)” value in test [2] (10 μM peptide) is listed as “no effect”. Besides, the “effect on AngII induced Akt phosphorylation (in words)” value in test [3] (10 μM peptide) is reported as “no effect”. In test [4] (10 μM peptide), the “effect on AngII dependent NFκB activation / p65 phosphorylation (in words)” value is reported as “no inhibitory effect”. In test [7], the “effect on ERK1/2 activation by AngII (in words)” value is on record as “neither the control peptide nor the IC2 peptide at 10 μM affected the activation of this MAP kinase by AngII”.
In the case of bradykinin, in test [8], the “Akt phosphorylation (in words)” value is listed as “decreases it”.
